Source: patent publication US12403132B2, “Methods of treating bone marrow failure syndromes and compositions for use in the same” (The Board of Trustees of the Leland Stanford Junior …, priority 2020, dated 2025)
Where two headings read alike, the source gives them in different places.

How the values were obtained:
NLK = target: T1, NLK (Homo sapiens, UniProt Q9UBE8); test: NLK in vitro kinase assay, compound added to active NLK immunopurified from Kp53A1 cells; assay type: biochemical; design: inhibition of NLK kinase activity in vitro: dose or concentration left out as unconfirmed; conditions: for NLK activity with compound added to activated NLK in in vitro kinase assay: 0, 50 nM, 50 μM or 50 mM, 30 mins
T1 sequence (Q9UBE8 1-527): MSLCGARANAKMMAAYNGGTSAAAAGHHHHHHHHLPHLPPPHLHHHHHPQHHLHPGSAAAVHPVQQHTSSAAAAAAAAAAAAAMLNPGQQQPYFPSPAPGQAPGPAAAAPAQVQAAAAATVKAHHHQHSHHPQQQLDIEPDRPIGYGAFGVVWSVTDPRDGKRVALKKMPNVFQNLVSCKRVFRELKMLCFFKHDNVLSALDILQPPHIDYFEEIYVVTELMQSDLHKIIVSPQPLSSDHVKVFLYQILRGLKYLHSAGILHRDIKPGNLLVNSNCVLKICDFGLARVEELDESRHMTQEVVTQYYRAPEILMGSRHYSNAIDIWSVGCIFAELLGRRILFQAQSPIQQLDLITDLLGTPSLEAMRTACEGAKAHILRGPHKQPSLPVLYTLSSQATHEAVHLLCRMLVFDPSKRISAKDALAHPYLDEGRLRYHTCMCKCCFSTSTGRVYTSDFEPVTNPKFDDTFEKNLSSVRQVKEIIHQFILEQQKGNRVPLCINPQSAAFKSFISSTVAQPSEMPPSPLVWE
Method: FIG. 6. […] (a) Schematic of assay utilized to screen compounds for effects on erythroid progenitor cell expansion. Lin-Kit+fetal liver cells were obtained from mouse embryos expressing tet-on shRNA against RPS19, at day E14.5-15.5. Cells were plated at 2000 cell per well in 96-well plates in the presence or absence of doxycycline. Relative amounts of live cells were quantified by luciferase-based Cell titer-Glo® assay. (b) TGFβR1 inhibitors including SB431542 were assessed for their ability to increase cell expansion in RPS19-insuffiency. As a control, untreated (no doxycycline) is represented at the far left while all other samples were treated with doxycycline to induce RPS19-insufficiency. (c) Kit+ erythroid progenitors were grown in the absence of doxycycline and in the presence of 10 μM of indicated compound. As a comparison, samples with no inhibitor added are represented in grey. In addition, cells were either left untreated, or treated with 5 ng/ml of TGFβ1 for 5 days before being subjected to Cell TiterGlo® assay. (d) Schematic indicating Smad2 and Smad3 serve as substrates for activated TGFβR1 while NLK, c-Myb and raptor serve as substrates for activated NLK (upper panel). K562 cells were stimulated with 5 ng/ml TGFβ1 for 10 min and TGFβR1 was immunopurified after cell lysis and protein normalization. TGFβR1 was added to purified Smad2 (middle panel) and Smad3 (lower panel) in the presence of ATP and Mg^2+ at 37° C. for 30 min. As per NLK kinase assay, phosphorylation of substrates was detected by antibody raised against phosphorylated serine residues. Compounds with inhibitory properties against TGFβR1, other TGFB pathway factors, or NLK expression were added to the kinase reactions at concentrations known to inhibit TGFB signaling.
FIG. 10. […] (Panel A) Control (shLuc—grey columns) or RPS19-insufficient (shRPS19-—black columns) progenitors were differentiated in erythroid media alone, vehicle or vehicle containing 50 mM metformin or 5 uM SD208 for 5 days. 5000 cells per treatment were lysed and immunopurified NLK was subjected to in vitro kinase assay to determine phosphorylation potential against 3 recognized NLK substrates; NLK itself (upper), c-Myb (middle) or raptor (bottom). (Panel B) Simultaneously, qRT-PCR was performed to examine NLK (upper) and RPS19 (lower) mRNA expression. (Panel C) Active NLK was purified from activated Kp53A1 cells and subjected to in vitro kinase assay in the presence of 0, 50 nM, 50 μM, or 50 mM metformin or SD208. The phosphorylation of NLK (upper), c-Myb (middle) and raptor (lower) was determined after 30 mins. (Panel D) CD34+ progenitors were transduced with a combination of either shRNA against luciferase (shLuc—grey columns) or RPS19 (shRPS19—black columns) and siRNA against a non-targeting sequence (NT) or NLK (siNLK). After 14 days differentiation in the presence or absence of metformin, cells were counted and the percentage of cells with surface expression of CD235 and CD11b were determined by flow cytometry, to yield the number of CD235+ erythroid (upper) and CD11b+ myeloid (lower) cells. The total number of cells is expressed as a percentage of the number of each cell type in the control (untreated/shLuc/NT). […] Statistics: two-tailed Student's t test, significant *P<0.05
For NLK kinase analysis, cultures were treated as indicated and lysed for 30 min at 4° C. in 750 μl of kinase lysis buffer (50 mM Tris [pH 7.4], 5 mM EDTA, 250 mM NaCl, 0.1% Triton X-100, 50 mM NaF, 0.1 trypsin inhibitor unit of aprotinin per ml, 50 μg of phenylmethylsulfonyl fluoride per ml, 100 μM sodium vanadate, 1 μg of leupeptin per ml).

CD235+ erythroblasts = test: CD235+ erythroid expansion of differentiating human cord blood CD34+ progenitors (shRPS19/shRPL11 DBA models), flow cytometry; assay type: cell-based; design: increase of erythroid expansion / impact on erythropoiesis in healthy controls / erythroid expansion in RPS19-insufficiency: dose or concentration left out as unconfirmed; conditions: for erythroid expansion in RPS19-insufficiency: alone and combined; for increase of CD235+ erythroid expansion / CD235+ erythroid expansion, % of control: 50 mM metformin; for CD235+ erythroid expansion, % of control: 14 days
[1] = panel assessed at 0.1, 1 and 10 μM, compared with TGFβR1 at 1 μM

Cc1cccc(-c2nn3c(c2-c2ccnc4ccc(C(N)=O)cc24)CCC3)n1 [Galunisertib]
inhibition at 1 µM (NLK; [1]): 40 to 45%

NC(=O)c1ccc(-c2nc(-c3ccc4c(c3)OCO4)c(-c3ccccn3)[nH]2)cc1 [SB431542]
inhibition at 1 µM (NLK; [1]): ~55%

Fc1ccc(Cl)cc1-c1nc(Nc2ccncc2)c2nccnc2n1 [SD208]
NLK activity with compound added to activated NLK in in vitro kinase assay (NLK): robustly inhibited
inhibition of NLK phosphorylating NLK (NLK; 5 μM): 84.3%
inhibition of NLK phosphorylating Raptor (NLK; 5 μM): 89.1%
inhibition of NLK phosphorylating c-Myb (NLK; 5 μM): 79.7%
inhibition of NLK activity in vitro (NLK; [1]): approximately 80%
CD235+ erythroblast expansion, % of controls (CD235+ erythroblasts; RPS19-insufficient, SD208 and/or siRNA against NLK, 15 days): 40.3%
erythroid expansion, % of untreated controls (CD235+ erythroblasts; control shRNA, SD208 5 μM, 15 days): approximately 105%

CC(C)=CCC[C@](C)(O[C@@H]1O[C@H](CO[C@@H]2O[C@H](CO)[C@@H](O)[C@H](O)[C@H]2O)[C@@H](O)[C@H](O)[C@H]1O)[C@H]1CC[C@]2(C)[C@@H]1[C@H](O)C[C@@H]1[C@@]3(C)CC[C@H](O[C@@H]4O[C@H](CO)[C@@H](O)[C@H](O)[C@H]4O[C@@H]4O[C@H](CO)[C@@H](O)[C@H](O)[C@H]4O)C(C)(C)[C@@H]3CC[C@]12C [ginsenoside Rb1]
inhibition of NLK kinase activity in vitro (NLK; substrates Raptor, c-Myb, NLK): failed to inhibit
concentration at which 90% potency is achieved (CD235+ erythroblasts): 8.6 mM
impact on erythropoiesis in healthy controls (CD235+ erythroblasts): did not significantly impact
improvement of erythroid expansion (CD235+ erythroblasts; RPS19-insufficiency, ginsenoside and/or siRNA against NLK): 2.7 fold
increase of erythroid expansion (CD235+ erythroblasts; RPS19-insufficiency, miRNA and/or drug): 2.52 fold
increase of erythroid expansion (CD235+ erythroblasts; RPS19-insufficient progenitors): 2.6 fold
erythroid expansion in RPS19-insufficiency (CD235+ erythroblasts): 20.9%
EC50 (CD235+ erythroblasts; read-out: EC50 value (erythroid expansion)): 2.3 mM

CN(C)C(=N)N=C(N)N [metformin]
NLK activity with compound added to activated NLK in in vitro kinase assay (NLK): did not influence
concentrations at which significant erythroid improvement was detected (CD235+ erythroblasts): above 8 mM
EC50 (CD235+ erythroblasts; Homo sapiens, read-out: EC50 (erythroid expansion)): 11.4 mM
increase of CD235+ erythroid expansion (CD235+ erythroblasts; RPL11-insufficiency): 2.0 fold
CD235+ erythroid expansion, % of control (CD235+ erythroblasts; RPL11-insufficiency, 16.4% untreated): 32.7%
improvement of erythropoiesis (CD235+) (CD235+ erythroblasts; RPS19-insufficiency (8.3% of controls untreated), 12 days): 3.6 fold
increase of CD235+ erythroid expansion (CD235+ erythroblasts; RPS19-insufficiency): 5.9 fold
CD235+ erythroid expansion, % of control (CD235+ erythroblasts; RPS19-insufficiency, 5.7% untreated): 33.3%
erythroid expansion in RPS19-insufficiency (CD235+ erythroblasts): 28.4%
